# Laboratory results from US9499550B2 (BRISTOL-MYERS SQUIBB COMPANY, priority 2012, dated 2016).
# Tests used:
# [1] = tested on: HCV genotype 1a (H77 strain) replicon in HUH-7 cells; assay: HCV replicon luciferase reporter assay, genotype 1a; format: cell-based; conditions: Hepatitis C virus, Huh-7, 72 h, HCV genotype 1a replicon luciferase, 3 days incubation, read-out: LE_1a (EC50, range)
# How it was run: (§1)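 Replicon inhibition for both genotypes was measured as Renilla luciferase signal (EnduRen, 7.5 μM final, 2 h) after 3-day, 37° C exposure of replicon-bearing HUH-7 cells in 4% FCS DMEM, 0.5% DMSO. The 1b construct carries S1179I; the 1a H77 construct carries P1496L and S2204I. Twenty-point, 3-fold dilutions were fitted four-parametrically for EC50, and CC50 was taken from multiplexed Cell Titer-Blue.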
# [2] = tested on: HCV genotype 1b (Con1) replicon in HUH-7 cells; assay: HCV replicon luciferase reporter assay, genotype 1b; format: cell-based; conditions: Hepatitis C virus, Huh-7, 72 h, HCV genotype 1b replicon luciferase, 3 days incubation, read-out: LE_1b (EC50, range)
# How it was run: as §1
Structure (SMILES),EC50 [1] [nM],EC50 [2] [nM]
"COc1ccc2c(O[C@@H]3C[C@H]4C(=O)N[C@]5(C(=O)NS(=O)(=O)C6(C)CC6)C[C@H]5/C=C\CC[C@@H](C)C[C@@H](C)[C@H](NC(=O)OC(C)(C)C)C(=O)N4C3)nc(-c3ccc4c(c3)OCCO4)cc2c1 [Compound 5233, tert-butyl ((2R,6S,7R,9R,13aS,14aR,16aS,Z)-2-((3-(2,3-dihydrobenzo[b][1,4]dioxin-6-yl)-6-methoxyisoquinolin-1-yl)oxy)-7,9-dimethyl-14a-(((1-methylcyclopropyl)sulfonyl)carbamoyl)-5,16-dioxo-1,2,3,5,6,7,8,9,10,11,13a,14,14a,15,16,16a-hexadecahydrocyclopropa[e]pyrrolo[1,2-a][1,4]diazacyclopentadecin-6-yl)carbamate]",< 5.46,< 5.46
"COc1ccc2c(O[C@@H]3C[C@H]4C(=O)N[C@]5(C(=O)NS(=O)(=O)C6(C)CC6)C[C@H]5/C=C\CC[C@@H](C)C[C@@H](C)[C@H](NC(=O)OC(C)(C)C(F)(F)F)C(=O)N4C3)nc(-c3ccc4c(c3)OCCO4)cc2c1 [Compound 5235, 1,1,1-trifluoro-2-methylpropan-2-yl((2R,6S,7R,9R,13aS,14aR,16aS,Z)-2-((3-(2,3-dihydrobenzo[b][1,4]dioxin-6-yl)-6-methoxyisoquinolin-1-yl)oxy)-7,9-dimethyl-14a-(((1-methylcyclopropyl)sulfonyl)carbamoyl)-5,16-dioxo-1,2,3,5,6,7,8,9,10,11,13a,14,14a,15,16,16a-hexadecahydrocyclopropa[e]pyrrolo[1,2-a][1,4]diazacyclopentadecin-6-yl)carbamate]",< 5.46,< 5.46
"COc1ccc2c(O[C@@H]3C[C@H]4C(=O)N[C@]5(C(=O)NS(=O)(=O)C6(C)CC6)C[C@H]5/C=C\CC[C@H](C)C[C@@H](C)[C@H](NC(=O)OC(C)(C)C(C)(F)F)C(=O)N4C3)nc(-c3ccc4c(c3)OCCO4)cc2c1 [Compound 5236, 3,3-difluoro-2-methylbutan-2-yl((2R,6S,7R,9S,13aS,14aR,16aS,Z)-2-((3-(2,3-dihydrobenzo[b][1,4]dioxin-6-yl)-6-methoxyisoquinolin-1-yl)oxy)-7,9-dimethyl-14a-(((1-methylcyclopropyl)sulfonyl)carbamoyl)-5,16-dioxo-1,2,3,5,6,7,8,9,10,11,13a,14,14a,15,16,16a-hexadecahydrocyclopropa[e]pyrrolo[1,2-a][1,4]diazacyclopentadecin-6-yl)carbamate]",< 5.46,< 5.46
"COc1ccc2c(O[C@@H]3C[C@H]4C(=O)N[C@]5(C(=O)NS(=O)(=O)C6(C)CC6)C[C@H]5/C=C\CC[C@@H](C)C[C@@H](C)[C@H](NC(=O)OC(C)(C)C(C)(F)F)C(=O)N4C3)nc(-c3ccc4c(c3)OCCO4)cc2c1 [Compound 5237, 3,3-difluoro-2-methylbutan-2-yl((2R,6S,7R,9R,13aS,14aR,16aS,Z)-2-((3-(2,3-dihydrobenzo[b][1,4]dioxin-6-yl)-6-methoxyisoquinolin-1-yl)oxy)-7,9-dimethyl-14a-(((1-methylcyclopropyl)sulfonyl)carbamoyl)-5,16-dioxo-1,2,3,5,6,7,8,9,10,11,13a,14,14a,15,16,16a-hexadecahydrocyclopropa[e]pyrrolo[1,2-a][1,4]diazacyclopentadecin-6-yl)carbamate]",< 5.46,< 5.46
"COc1ccc2c(O[C@@H]3C[C@H]4C(=O)N[C@]5(C(=O)NS(=O)(=O)C6CC6)C[C@H]5/C=C\CC[C@@H](C)C[C@@H](C)[C@H](NC(=O)OC(C)(C)C)C(=O)N4C3)nc(-c3ccc4c(c3)OCCO4)cc2c1 [Compound 5239, tert-butyl ((2R,6S,7R,9R,13aS,14aR,16aS,Z)-14a-((cyclopropylsulfonyl)carbamoyl)-2-((3-(2,3-dihydrobenzo[b][1,4]dioxin-6-yl)-6-methoxyisoquinolin-1-yl)oxy)-7,9-dimethyl-5,16-dioxo-1,2,3,5,6,7,8,9,10,11,13a,14,14a,15,16,16a-hexadecahydrocyclopropa[e]pyrrolo[1,2-a][1,4]diazacyclopentadecin-6-yl)carbamate]",< 5.46,< 5.46
"COc1ccc2c(O[C@@H]3C[C@H]4C(=O)N[C@]5(C(=O)NS(=O)(=O)C6CC6)C[C@H]5/C=C\CC[C@@H](C)C[C@@H](C)[C@H](NC(=O)OC(C)(C)C(C)(F)F)C(=O)N4C3)nc(-c3ccc4c(c3)OCCO4)cc2c1 [Compound 5241, 3,3-difluoro-2-methylbutan-2-yl((2R,6S,7R,9R,13aS,14aR,16aS,Z)-14a-((cyclopropylsulfonyl)carbamoyl)-2-((3-(2,3-dihydrobenzo[b][1,4]dioxin-6-yl)-6-methoxyisoquinolin-1-yl)oxy)-7,9-dimethyl-5,16-dioxo-1,2,3,5,6,7,8,9,10,11,13a,14,14a,15,16,16a-hexadecahydrocyclopropa[e]pyrrolo[1,2-a][1,4]diazacyclopentadecin-6-yl)carbamate]",< 5.46,< 5.46
"COc1ccc2c(O[C@@H]3C[C@H]4C(=O)N[C@]5(C(=O)NS(=O)(=O)C6CC6)C[C@H]5/C=C\CC[C@@H](C)C[C@@H](C)[C@H](NC(=O)OC(C)(C)C(F)(F)F)C(=O)N4C3)nc(-c3ccc4c(c3)OCCO4)cc2c1 [Compound 5243, 1,1,1-trifluoro-2-methylpropan-2-yl((2R,6S,7R,9R,13aS,14aR,16aS,Z)-14a-((cyclopropylsulfonyl)carbamoyl)-2-((3-(2,3-dihydrobenzo[b][1,4]dioxin-6-yl)-6-methoxyisoquinolin-1-yl)oxy)-7,9-dimethyl-5,16-dioxo-1,2,3,5,6,7,8,9,10,11,13a,14,14a,15,16,16a-hexadecahydrocyclopropa[e]pyrrolo[1,2-a][1,4]diazacyclopentadecin-6-yl)carbamate]",< 5.46,< 5.46
"C[C@H]1CC/C=C\[C@@H]2C[C@@]2(C(=O)NS(=O)(=O)C2(C)CC2)NC(=O)[C@@H]2C[C@@H](Oc3nccc4c5c(ccc34)OCCO5)CN2C(=O)[C@@H](NC(=O)OC(C)(C)C)[C@H](C)C1 [Compound 5244, tert-butyl ((2R,6S,7R,9S,13aS,14aR,16aS,Z)-2-((2,3-dihydro-[1,4]dioxino[2,3-f]isoquinolin-7-yl)oxy)-7,9-dimethyl-14a-(((1-methylcyclopropyl)sulfonyl)carbamoyl)-5,16-dioxo-1,2,3,5,6,7,8,9,10,11,13a,14,14a,15,16,16a-hexadecahydrocyclopropa[e]pyrrolo[1,2-a][1,4]diazacyclopentadecin-6-yl)carbamate]",4.82 to 103,4.82 to 103
"C[C@@H]1CC/C=C\[C@@H]2C[C@@]2(C(=O)NS(=O)(=O)C2(C)CC2)NC(=O)[C@@H]2C[C@@H](Oc3nccc4c5c(ccc34)OCCO5)CN2C(=O)[C@@H](NC(=O)OC(C)(C)C)[C@H](C)C1 [Compound 5245, tert-butyl ((2R,6S,7R,9R,13aS,14aR,16aS,Z)-2-((2,3-dihydro-[1,4]dioxino[2,3-f]isoquinolin-7-yl)oxy)-7,9-dimethyl-14a-(((1-methylcyclopropyl)sulfonyl)carbamoyl)-5,16-dioxo-1,2,3,5,6,7,8,9,10,11,13a,14,14a,15,16,16a-hexadecahydrocyclopropa[e]pyrrolo[1,2-a][1,4]diazacyclopentadecin-6-yl)carbamate]",< 5.46,< 5.46
"C[C@H]1CC/C=C\[C@@H]2C[C@@]2(C(=O)NS(=O)(=O)C2(C)CC2)NC(=O)[C@@H]2C[C@@H](Oc3nccc4c5c(ccc34)OCCO5)CN2C(=O)[C@@H](NC(=O)OC(C)(C)C(F)(F)F)[C@H](C)C1 [Compound 5246, 1,1,1-trifluoro-2-methylpropan-2-yl((2R,6S,7R,9S,13aS,14aR,16aS,Z)-2-((2,3-dihydro-[1,4]dioxino[2,3-f]isoquinolin-7-yl)oxy)-7,9-dimethyl-14a-(((1-methylcyclopropyl)sulfonyl)carbamoyl)-5,16-dioxo-1,2,3,5,6,7,8,9,10,11,13a,14,14a,15,16,16a-hexadecahydrocyclopropa[e]pyrrolo[1,2-a][1,4]diazacyclopentadecin-6-yl)carbamate]",4.82 to 103,4.82 to 103
"C[C@@H]1CC/C=C\[C@@H]2C[C@@]2(C(=O)NS(=O)(=O)C2(C)CC2)NC(=O)[C@@H]2C[C@@H](Oc3nccc4c5c(ccc34)OCCO5)CN2C(=O)[C@@H](NC(=O)OC(C)(C)C(F)(F)F)[C@H](C)C1 [Compound 5247, 1,1,1-trifluoro-2-methylpropan-2-yl((2R,6S,7R,9R,13aS,14aR,16aS,Z)-2-((2,3-dihydro-[1,4]dioxino[2,3-f]isoquinolin-7-yl)oxy)-7,9-dimethyl-14a-(((1-methylcyclopropyl)sulfonyl)carbamoyl)-5,16-dioxo-1,2,3,5,6,7,8,9,10,11,13a,14,14a,15,16,16a-hexadecahydrocyclopropa[e]pyrrolo[1,2-a][1,4]diazacyclopentadecin-6-yl)carbamate]",< 5.46,< 5.46
"C[C@H]1CC/C=C\[C@@H]2C[C@@]2(C(=O)NS(=O)(=O)C2(C)CC2)NC(=O)[C@@H]2C[C@@H](Oc3nccc4c5c(ccc34)OCCO5)CN2C(=O)[C@@H](NC(=O)O[C@@H]2C[C@@H]3C[C@@H]3C2)[C@H](C)C1 [Compound 5248, (1R,3r,5 S)-bicyclo[3.1.0]hexan-3-yl((2R,6S,7R,9S,13aS,14aR,16aS,Z)-2-((2,3-dihydro-[1,4]dioxino[2,3-f]isoquinolin-7-yl)oxy)-7,9-dimethyl-14a-(((1-methylcyclopropyl)sulfonyl)carbamoyl)-5,16-dioxo-1,2,3,5,6,7,8,9,10,11,13a,14,14a,15,16,16a-hexadecahydrocyclopropa[e]pyrrolo[1,2-a][1,4]diazacyclopentadecin-6-yl)carbamate]",4.82 to 103,< 5.46
